# According to ChEMBL document CHEMBL5143547, “Antimycobacterial and anti-inflammatory activities of thiourea derivatives focusing on treatment approaches for severe pulmonary tuberculosis” (Bioorg Med Chem, 2022):
# Active and inactive are the calls of the source. No cut-off for these calls is given here.
# Legend:
# [1] = test system: Mycobacterium tuberculosis; assay: Antitubercular activity against Mycobacterium tuberculosis H37Rv assessed as reduction in microbial growth after 5 days by MTT assay; assay type: functional; conditions: 120 h, time 5 day
# [2] = Selectivity index, ratio of CC50 for cytotoxicity against LPS-stimulated mouse RAW264.7 cells to MIC50 for antitubercular activity against Mycobacterium tuberculosis H37Rv; assay type: toxicity, cell-based; conditions: LPS-stimulated RAW264.7 cells, read-out: Selectivity Index
# RAW264.7 [3] = assay: Inhibition of NO production in mouse RAW264.7 cells incubated for 24 hrs by Griess reagent based analysis; assay type: functional, cell-based; conditions: RAW264.7, 24 h
# [4] = Cytotoxicity against LPS-stimulated mouse RAW264.7 cells after 24 hrs by MTT assay; assay type: toxicity, cell-based; conditions: LPS-stimulated RAW264.7 cells
# RAW264.7 [5] = assay: Anti-inflammatory activity against LPS-stimulated mouse RAW264.7 cells assessed as reduction in IL1beta protein expression level after 24 hrs by ELISA; assay type: functional, cell-based; conditions: RAW264.7, 24 h
# RAW264.7 [6] = assay: Anti-inflammatory activity against LPS-stimulated mouse RAW264.7 cells assessed as reduction in TNFalpha protein expression level after 24 hrs by ELISA; assay type: functional, cell-based; conditions: RAW264.7, 24 h
# RAW264.7 [7] = assay: Anti-inflammatory activity against LPS-stimulated mouse RAW264.7 cells assessed as reduction in TNFalpha protein expression level at 12.5 uM after 24 hrs by ELISA; assay type: functional, cell-based
# [8] = test system: Mycobacterium tuberculosis; assay: Antitubercular activity against Mycobacterium tuberculosis M299 assessed as reduction in microbial growth after 5 days by MTT assay; assay type: functional, organism-based; conditions: M299, 120 h
# RAW264.7 [9] = assay: Anti-inflammatory activity against LPS-stimulated mouse RAW264.7 cells assessed as reduction in iNOS protein expression level at 100 uM after 24 hrs by immunoblot analysis relative to control; assay type: functional
# [10] = Selectivity index, ratio of CC50 for cytotoxicity against LPS-stimulated mouse RAW264.7 cells to MIC50 for antitubercular activity against Mycobacterium tuberculosis M299; assay type: toxicity, cell-based; conditions: LPS-stimulated RAW264.7 cells, read-out: Selectivity Index
# [11] = test system: Mycobacterium tuberculosis; assay: Antitubercular activity against Mycobacterium tuberculosis H37Rv infected in mouse RAW264.7 cells assessed as reduction in microbial growth after 4 days followed by cell lysis and measured after 21 days; assay type: functional; conditions: 96 h, time 4 day
# [12] = test system: Mycobacterium tuberculosis; assay: Antitubercular activity against Mycobacterium tuberculosis M299 infected in mouse RAW264.7 cells assessed as reduction in intracellular microbial growth after 4 days followed by cell lysis and measured after 21 days; assay type: functional; conditions: M299, 96 h, time 4 day
# RAW264.7 [13] = assay: Anti-inflammatory activity against LPS-stimulated mouse RAW264.7 cells assessed as reduction in iNOS protein expression level at 50 uM after 24 hrs by immunoblot analysis; assay type: functional, cell-based
SMILES,MIC50 [1],selectivity ratio [2],IC50 (RAW264.7 [3]),CC50 at 24 h [4],IC50 (RAW264.7 [5]),IC50 (RAW264.7 [6]),inhibition (RAW264.7 [7]),IC50 [8],inhibition at 100 µM (RAW264.7 [9]),selectivity ratio [10],MIC50 [11],MIC50 [12],inhibition (RAW264.7 [13])
S=C(Nc1ccccc1)N1CCN(Cc2ccc3c(c2)OCO3)CC1,23.9 µM,> 8.4,116 µM,≥ 200 µM,–,–,–,–,–,–,–,–,–
S=C(NCc1ccccc1)N1CCN(c2ccccc2)CC1,27.9 µM,1.9,4.1 µM,54.3 µM,–,–,–,–,–,–,–,–,–
S=C(NCc1ccccc1)Nc1ccc2c(c1)OCO2,132 µM,> 1.5,24.8 µM,≥ 200 µM,–,–,–,–,–,–,–,–,–
S=C(NCCc1ccccc1)N1CCN(c2nc3ccccc3[nH]2)CC1,20 µM,1.7,≥ 200 µM,33.7 µM,–,–,–,–,–,–,–,–,–
S=C(NCc1ccccc1)Nc1ccccn1,17.7 µM,> 1.1,≥ 200 µM,≥ 200 µM,–,–,–,–,–,–,–,–,–
COc1ccc(CN2CCN(C(=S)Nc3ccccc3)CC2)c(OC)c1OC,16 µM,2.2,≥ 200 µM,34.9 µM,–,–,–,–,–,–,–,–,–
OCCNC(=S)Nc1ccccc1,53.3 µM,1.9,≥ 200 µM,105 µM,–,–,–,–,–,–,–,–,–
S=C(NCCc1ccccc1)N1CCN(c2ncccn2)CC1,34.9 µM,1.2,≥ 200 µM,40.6 µM,–,–,–,–,–,–,–,–,–
O=C(NNC(=S)NCc1ccccc1)c1ccccc1,33.7 µM,1.3,≥ 200 µM,42.1 µM,–,–,–,–,–,–,–,–,–
COc1cc(NC(=S)NC#N)cc(OC)c1OC,184 µM,> 1.1,3.9 µM,≥ 200 µM,–,–,–,–,–,–,–,–,–
N#CNC(=S)NCCc1ccccc1,33.3 µM,1.9,10.1 µM,65.9 µM,–,–,–,–,–,–,–,–,–
CC(C)Cc1ccc(C(C)C(=O)O)cc1 (stereo not drawn) [IBUPROFEN],–,–,–,–,14.4 µM,2.1 µM,Active,–,–,–,–,–,–
CNC(=N)NCCC[C@H](N)C(=O)O [TILARGININE ACETATE],–,–,78.3 µM,–,–,–,–,–,–,–,–,–,–
CCCCNC(=S)NCc1ccccc1,160 µM,1.1,143 µM,177 µM,–,–,–,–,–,–,–,–,–
CO[C@H]1/C=C/O[C@@]2(C)Oc3c(C)c(O)c4c(O)c(c(/C=N/N5CCN(C)CC5)c(O)c4c3C2=O)NC(=O)/C(C)=C\C=C\[C@H](C)[C@H](O)[C@@H](C)[C@@H](O)[C@@H](C)[C@H](OC(C)=O)[C@@H]1C [RIFAMPIN],0.2 µM,–,–,–,–,–,–,1.2 µM,–,–,–,–,–
S=C(Nc1ccccc1)Nc1ccccn1,16.4 µM,> 12.2,182 µM,≥ 200 µM,–,–,–,–,–,–,–,–,–
CC(C)NC(=S)NCCc1ccccc1,108 µM,> 1.9,20.6 µM,≥ 200 µM,–,–,–,–,–,–,–,–,–
COc1ccc(NC(S)=Nc2ccccc2)cc1,16.2 µM,2.7,≥ 200 µM,43.3 µM,–,–,–,–,–,–,–,–,–
O=C(O)c1ccc(NC(=S)NCc2ccccc2)cc1O,5.9 µM,33.3,8.1 µM,197 µM,47.9 µM,28.4 µM,Active,24.7 µM,≤ 100%,8,10.9 µM,24.7 µM,–
S=C(NCCc1ccccc1)N1CCOCC1,≥ 200 µM,> 1,≥ 200 µM,≥ 200 µM,–,–,–,–,–,–,–,–,–
S=C(NCc1ccccc1)N(c1ccccc1)c1ccccc1,≥ 200 µM,0.3,≥ 200 µM,67.6 µM,–,–,–,–,–,–,–,–,–
COc1ccc(NC(=S)NCc2ccccc2)cc1,7.9 µM,133,≥ 200 µM,105 µM,–,–,–,–,–,–,–,–,–
S=C(Nc1ccccc1)Nc1ccc(Br)cc1,28.9 µM,0.9,1.9 µM,27.1 µM,–,–,–,–,–,–,–,–,–
CC(C)NC(=S)NCc1ccccc1,57.8 µM,> 3.5,≥ 200 µM,≥ 200 µM,–,–,–,–,–,–,–,–,–

SMILES,MIC50 [1],selectivity ratio [2],IC50 (RAW264.7 [3]),CC50 at 24 h [4],IC50 (RAW264.7 [5]),IC50 (RAW264.7 [6]),inhibition (RAW264.7 [7]),IC50 [8],inhibition at 100 µM (RAW264.7 [9]),selectivity ratio [10],MIC50 [11],MIC50 [12],inhibition (RAW264.7 [13])
CCCCN1CCN(C(=S)Nc2ccccc2)CC1,31.5 µM,> 6.4,≥ 200 µM,≥ 200 µM,–,–,–,–,–,–,–,–,–
COc1cc(NC(=S)Nc2ccccc2)cc(OC)c1OC,28.9 µM,5.3,15.2 µM,154 µM,–,–,–,–,–,–,–,–,–
CCN(CC)C(S)=NCCc1ccccc1,17.6 µM,4.9,≥ 200 µM,87.3 µM,–,–,–,–,–,–,–,–,–
S=C(NCc1ccccc1)N1CCN(c2ncccn2)CC1,17.8 µM,2.9,≥ 200 µM,50.9 µM,–,–,–,–,–,–,–,–,–
O=C(C1CCCO1)N1CCN(C(=S)Nc2ccccc2)CC1 (stereo not drawn),23.3 µM,> 8.6,187 µM,≥ 200 µM,–,–,–,–,–,–,–,–,–
COc1cc(NC(=S)Nc2cc(OC)c(OC)c(OC)c2)cc(OC)c1OC,64.2 µM,0.9,31.8 µM,60.6 µM,–,–,–,–,–,–,–,–,–
COc1cc(NC(=S)NCCc2ccccc2)cc(OC)c1OC,8.6 µM,> 25,4.1 µM,≥ 200 µM,80.2 µM,15.3 µM,Active,24.8 µM,≤ 100%,≥ 8.1,7.7 µM,12.9 µM,–
O=C(NNC(=S)NCc1ccccc1)c1ccncc1,1.3 µM,71.7,7.4 µM,93.2 µM,≥ 200 µM,18.7 µM,Active,6.9 µM,≤ 100%,13.5,3.7 µM,32 µM,–
S=C(NCCc1ccccc1)N1CCN(c2ccccn2)CC1,12.6 µM,3.2,≥ 200 µM,40.6 µM,–,–,–,–,–,–,–,–,–
CCN(CC)C(=S)NCc1ccccc1,40.2 µM,> 4.9,15.7 µM,≥ 200 µM,–,–,–,–,–,–,–,–,–
CN(C[C@H](O)[C@@H](O)[C@H](O)[C@H](O)CO)C(=S)NCc1ccccc1,134 µM,0.8,≥ 200 µM,104 µM,–,–,–,–,–,–,–,–,–
COc1cc(NC(=S)N2CCN(c3ccc(O)cc3)CC2)cc(OC)c1OC,80.9 µM,0.2,≥ 200 µM,17.3 µM,–,–,–,–,–,–,–,–,–
CCCCN1CCN(C(=S)NCc2ccccc2)CC1,157 µM,> 1.3,≥ 200 µM,≥ 200 µM,–,–,–,–,–,–,–,–,–
S=C(Nc1ccccc1)N1CCN(c2ccccn2)CC1,9.5 µM,> 21.1,≥ 200 µM,≥ 200 µM,–,–,–,–,–,–,–,–,–
S=C(Nc1ccccc1)N1CCN(c2ncccn2)CC1,127 µM,> 1.6,≥ 200 µM,≥ 200 µM,–,–,–,–,–,–,–,–,–
OCCN(CCO)C(=S)Nc1ccccc1,≥ 200 µM,> 1,50.7 µM,≥ 200 µM,–,–,–,–,–,–,–,–,–
Oc1cccc(NC(=S)NCc2ccccc2)c1,77.2 µM,> 2.6,200 µM,≥ 200 µM,–,–,–,–,–,–,–,–,–
S=C(NCc1ccccc1)N1CCN(Cc2ccc3c(c2)OCO3)CC1,8.5 µM,15.9,110 µM,136 µM,–,–,–,–,–,–,–,–,–
Oc1ccc(N2CCN(C(=S)Nc3ccccc3)CC2)cc1,155 µM,1.2,155 µM,186 µM,–,–,–,–,–,–,–,–,–
S=C(NCc1ccccc1)Nc1ccc2c(c1)OCCO2,2 µM,> 100,13.7 µM,≥ 200 µM,33.2 µM,20.7 µM,Active,11.3 µM,≤ 100%,≥ 17.7,4.8 µM,19.4 µM,–
S=C(Nc1ccccc1)N1CCN(c2ccccc2Cl)CC1,37.3 µM,0.8,≥ 200 µM,30.5 µM,–,–,–,–,–,–,–,–,–
O=C(C1CCCO1)N1CCN(C(=S)NCc2ccccc2)CC1 (stereo not drawn),24.9 µM,> 8,≥ 200 µM,≥ 200 µM,–,–,–,–,–,–,–,–,–
CC(C)c1ccc(NC(=S)NCc2ccccc2)cc1,2.3 µM,52.5,2.4 µM,121 µM,55.7 µM,4 µM,Active,7.8 µM,≤ 100%,15.5,1.7 µM,5.6 µM,Active
